Columns and labels:
[1] = molecular target: T1, ExsA (Pseudomonas aeruginosa, UniProt P26993); assay: In vitro activity of Mar inhibitors against ExsA: cell-free DNA binding assay; details: purified ExsA from P. aeruginosa, inhibition of DNA binding in vitro
T1 construct: made in house
T1 sequence (P26993 1-278): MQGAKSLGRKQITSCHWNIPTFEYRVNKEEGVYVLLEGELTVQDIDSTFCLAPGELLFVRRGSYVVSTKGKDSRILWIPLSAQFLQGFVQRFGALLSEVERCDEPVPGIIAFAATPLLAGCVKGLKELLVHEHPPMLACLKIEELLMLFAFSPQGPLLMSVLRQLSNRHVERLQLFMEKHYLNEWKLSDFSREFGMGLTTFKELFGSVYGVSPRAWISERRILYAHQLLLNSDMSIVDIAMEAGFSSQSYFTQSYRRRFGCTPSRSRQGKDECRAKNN

[2] = molecular target: LcrF (VirF) (Yersinia pestis, UniProt P28808); assay: biochemical; assay type: binding, Y. pseudotuberculosis
Sequence of LcrF (VirF) (P28808 whole entry, looked up): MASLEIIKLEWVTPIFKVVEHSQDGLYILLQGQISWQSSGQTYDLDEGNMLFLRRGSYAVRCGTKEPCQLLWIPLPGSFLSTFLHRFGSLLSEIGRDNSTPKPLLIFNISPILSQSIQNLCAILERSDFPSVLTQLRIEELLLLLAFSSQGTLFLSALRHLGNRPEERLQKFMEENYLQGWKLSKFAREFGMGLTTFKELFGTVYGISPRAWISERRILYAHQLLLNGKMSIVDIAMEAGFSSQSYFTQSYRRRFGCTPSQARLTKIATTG

[3] = test system: P. aeruginosa; assay: Whole cell assay: cytotoxicity of P. aeruginosa toward J774 cells (CytoTox 96, LDH release); details: percent cytotoxicity of treated P. aeruginosa toward J774 cells
[4] = test system: Yersinia pseudotuberculosis

| Structure (SMILES) | EC50 [1] [µM] | EC50 [2] [µM] | Cytotoxicity at 50 μg/mL Pseudomonas [3] | Cytotoxicity at 50 μg/mL Yersinia [4] |
| --- | --- | --- | --- | --- |
| CCc1cc(-c2nc3ccc([N+](=O)[O-])cc3n2O)ccc1NC(=O)c1ccc(C(C)=O)cc1 [AA] | 10.1 to 25 | 10.1 to 25 | * (percent cytotoxicities above 75% at 50 mg/mL) | * (key: *: percent cytotoxicity above 75% at 50 μg/mL; **: cytotoxicities below 75% at 50 μg/mL) |
| O=C(Nc1ccc(-c2nc3ccc([N+](=O)[O-])cc3n2O)nc1)c1ccc(F)cc1 [AF] | > 25.1 | > 25.1 |  | * (key: *: percent cytotoxicity above 75% at 50 μg/mL; **: cytotoxicities below 75% at 50 μg/mL) |
| O=C(Nc1ccc(-c2nc3ccc([N+](=O)[O-])cc3n2OCP(=O)(O)O)cc1)c1ccc(F)cc1 [AK] |  |  |  | * (key: *: percent cytotoxicity above 75% at 50 μg/mL; **: cytotoxicities below 75% at 50 μg/mL) |
| CCOP(=O)(COn1c(-c2ccc(NC(=O)c3ccc(F)cc3)cc2)nc2ccc([N+](=O)[O-])cc21)OCC [AU] |  |  |  | * (key: *: percent cytotoxicity above 75% at 50 μg/mL; **: cytotoxicities below 75% at 50 μg/mL) |
| O=C(Nc1ccc(-c2nc3ccncc3n2O)cc1)c1ccc(F)cc1 [AX] |  |  |  | * (key: *: percent cytotoxicity above 75% at 50 μg/mL; **: cytotoxicities below 75% at 50 μg/mL) |
| O=C(/C=C/c1ccc(F)cc1)Nc1ccc(-c2nc3ccncc3n2O)cc1 [AY] |  |  |  | * (key: *: percent cytotoxicity above 75% at 50 μg/mL; **: cytotoxicities below 75% at 50 μg/mL) |
| Cc1cc(-c2nc3ccc([N+](=O)[O-])cc3n2O)ccc1NC(=O)/C=C/c1ccc(F)cc1 [BB] | > 25.1 | 10.1 to 25 |  | * (key: *: percent cytotoxicity above 75% at 50 μg/mL; **: cytotoxicities below 75% at 50 μg/mL) |
| O=C(Nc1ccc(-c2nc3ccc([N+](=O)[O-])cc3n2O)cc1)c1ccc2c(c1)CCCC2=O [BD] | > 25.1 | > 25.1 |  | * (key: *: percent cytotoxicity above 75% at 50 μg/mL; **: cytotoxicities below 75% at 50 μg/mL) |
| CC(=O)c1ccc(C(=O)Nc2ccc(-c3nc4ccc([N+](=O)[O-])cc4n3O)cc2C)cc1 [BF] | < 10 |  |  | * (key: *: percent cytotoxicity above 75% at 50 μg/mL; **: cytotoxicities below 75% at 50 μg/mL) |
| CN(C)C(=O)c1ccc(C(=O)Nc2ccc(-c3nc4ccc([N+](=O)[O-])cc4n3O)cc2)cc1 [BP] |  |  | * (percent cytotoxicities above 75% at 50 mg/mL) | * (key: *: percent cytotoxicity above 75% at 50 μg/mL; **: cytotoxicities below 75% at 50 μg/mL) |
| CN(C)CCN(C)c1cc2nc(-c3ccc(NC(=O)/C=C/c4ccc(F)cc4)cc3)n(O)c2cc1[N+](=O)[O-] [CE] | < 10 | < 10 | ** (cytotoxicities below 75% at 50 mg/mL) |  |
| CN1CCN(CCOc2cc3nc(-c4ccc(NC(=O)/C=C/c5ccc(F)cc5)cc4)n(O)c3cc2[N+](=O)[O-])CC1 [CF] | < 10 | < 10 | * (percent cytotoxicities above 75% at 50 mg/mL) |  |
| CN(C)CCOc1cc2nc(-c3ccc(NC(=O)/C=C/c4ccc(F)cc4)cc3)n(O)c2cc1[N+](=O)[O-] [CG] | > 25.1 |  | * (percent cytotoxicities above 75% at 50 mg/mL) |  |
| O=C(/C=C/c1ccc(F)cc1)Nc1ccc(-c2nc3ccc(-n4ccnc4)cc3n2O)cc1 [CH] | 10.1 to 25 | > 25.1 | * (percent cytotoxicities above 75% at 50 mg/mL) |  |
| CC(=O)c1ccc(/C=C/C(=O)Nc2ccc(-c3nc4cc(OCCN5CCN(C)CC5)c([N+](=O)[O-])cc4n3O)cc2)cc1 [CI] | < 10 | < 10 | ** (cytotoxicities below 75% at 50 mg/mL) |  |
| CC(=O)c1ccc(/C=C/C(=O)Nc2ccc(-c3nc4cc(OCCN5CCOCC5)c([N+](=O)[O-])cc4n3O)cc2)cc1 [CJ] |  |  | ** (cytotoxicities below 75% at 50 mg/mL) |  |
| CC(=O)c1ccc(/C=C/C(=O)Nc2ccc(-c3nc4ccc(C#N)cc4n3O)cc2)cc1 [CK] | 10.1 to 25 | 10.1 to 25 | ** (cytotoxicities below 75% at 50 mg/mL) |  |

| Structure (SMILES) | EC50 [1] [µM] | EC50 [2] [µM] | Cytotoxicity at 50 μg/mL Pseudomonas [3] | Cytotoxicity at 50 μg/mL Yersinia [4] |
| --- | --- | --- | --- | --- |
| N#Cc1ccc2nc(-c3ccc(NC(=O)c4ccc(-n5ccnc5)cc4)cc3)n(O)c2c1 [CO] | > 25.1 | 10.1 to 25 | ** (cytotoxicities below 75% at 50 mg/mL) |  |
| NC(=O)c1ccc2nc(-c3ccc(NC(=O)c4ccc(F)cc4)cc3)n(O)c2c1 [Compound AD, 2-[4-(4-Fluoro-benzoylamino)-phenyl]-3-hydroxy-3H-benzoimidazole-5-carboxylic Acid Amide] |  |  |  | * (key: *: percent cytotoxicity above 75% at 50 μg/mL; **: cytotoxicities below 75% at 50 μg/mL) |
| O=C(Nc1ccc(-c2nc3ccc([N+](=O)[O-])cc3n2O)c(OCP(=O)(O)O)c1)c1ccc(F)cc1 [Compound AR, [5-(4-Fluoro-benzoylamino)-2-(1-hydroxy-6-nitro-1H-benzoimidazol-2-yl)-phenoxymethyl]-phosphonic Acid] |  |  |  | * (key: *: percent cytotoxicity above 75% at 50 μg/mL; **: cytotoxicities below 75% at 50 μg/mL) |
| O=C(/C=C/c1ccc(-n2ccnc2)cc1)Nc1ccc(-c2nc3ccc([N+](=O)[O-])cc3n2O)cc1 [Compound BK, (E)-N-[4-(1-Hydroxy-6-nitro-1H-benzoimidazol-2-yl)-phenyl]-3-(4-imidazol-1-yl-phenyl)-acrylamide] | < 10 |  | ** (cytotoxicities below 75% at 50 mg/mL) | ** (key: *: percent cytotoxicity above 75% at 50 μg/mL; **: cytotoxicities below 75% at 50 μg/mL) |
| O=C(/C=C/c1ccc(F)cc1)Nc1ccc(-c2nc3cc(F)c([N+](=O)[O-])cc3n2O)cc1 [Compound BO, N-[4-(5-Fluoro-1-hydroxy-6-nitro-1H-benzoimidazol-2-yl)-phenyl]-3-(4-fluoro-cinnamyl)-amide] | > 25.1 | > 25.1 | ** (cytotoxicities below 75% at 50 mg/mL) |  |
| CC(=O)c1ccc(/C=C/C(=O)Nc2ccc(-c3nc4ccc([N+](=O)[O-])cc4n3O)cc2)cc1 [Compound BQ, (E)-3-(4-Acetyl-phenyl)-N-[4-(1-hydroxy-6-nitro-1H-benzoimidazol-2-yl)-phenyl]-acrylamide] | < 10 | 10.1 to 25 | ** (cytotoxicities below 75% at 50 mg/mL) |  |
| O=C(/C=C/c1ccc(F)cc1)Nc1ccc(-c2nc3ccc(-n4cccn4)cc3n2O)cc1 [Compound CL, (E)-3-(4-Fluoro-phenyl)-N-[4-(1-hydroxy-6-pyrazol-1-yl-1H-benzoimidazol-2-yl)-phenyl]-acrylamide] | > 25.1 | > 25.1 | * (percent cytotoxicities above 75% at 50 mg/mL) |  |
| CC(=O)c1ccc(C(=O)Nc2ccc(-c3nc4ccc(-n5cccn5)cc4n3O)cc2)cc1 [Compound CM, 4-Acetyl-N-[4-(1-hydroxy-6-pyrazol-1-yl-1H-benzoimidazol-2-yl)-phenyl]-benzamide] |  |  | * (percent cytotoxicities above 75% at 50 mg/mL) |  |
| CC(=O)c1ccc(C(=O)Nc2ccc(-c3nc4ccc(-n5ccnc5)cc4n3O)cc2)cc1 [Compound CN, 4-Acetyl-N-[4-(1-hydroxy-6-imidazol-1-yl-1H-benzoimidazol-2-yl)-phenyl]-benzamide] |  |  | * (percent cytotoxicities above 75% at 50 mg/mL) |  |
| O=C(O)COn1c(-c2ccc(NC(=O)c3ccc(F)cc3)cc2)nc2ccc([N+](=O)[O-])cc21 [Compound V, {2-[4-(4-Fluoro-benzoylamino)-phenyl]-6-nitro-benzoimidazol-1-yloxy}-acetic Acid] |  | > 25.1 |  | * (key: *: percent cytotoxicity above 75% at 50 μg/mL; **: cytotoxicities below 75% at 50 μg/mL) |
| CC(C)c1ccc(/C=C/C(=O)Nc2ccc(-c3nc4ccc([N+](=O)[O-])cc4n3O)cc2)cc1 [H] | > 25.1 | > 25.1 |  | * (key: *: percent cytotoxicity above 75% at 50 μg/mL; **: cytotoxicities below 75% at 50 μg/mL) |
| C/C(=C\c1ccccc1)C(=O)Nc1ccc(-c2nc3ccc([N+](=O)[O-])cc3n2O)cc1 [I] |  | > 25.1 |  | * (key: *: percent cytotoxicity above 75% at 50 μg/mL; **: cytotoxicities below 75% at 50 μg/mL) |
| O=C(Nc1ccc2nc(-c3ccc([N+](=O)[O-])cc3)n(O)c2c1)c1ccc(F)cc1 [L] |  |  |  | * (key: *: percent cytotoxicity above 75% at 50 μg/mL; **: cytotoxicities below 75% at 50 μg/mL) |
| NC(=NO)c1ccc2nc(-c3ccc(NC(=O)c4ccc(F)cc4)cc3)n(O)c2c1 [M] | > 25.1 | > 25.1 |  | * (key: *: percent cytotoxicity above 75% at 50 μg/mL; **: cytotoxicities below 75% at 50 μg/mL) |
| O=C(C/C=C/c1ccccc1)Nc1ccc(-c2nc3ccc([N+](=O)[O-])cc3n2O)cc1 [N] |  | > 25.1 | * (percent cytotoxicities above 75% at 50 mg/mL) | * (key: *: percent cytotoxicity above 75% at 50 μg/mL; **: cytotoxicities below 75% at 50 μg/mL) |
| CC(=NO)c1ccc2nc(-c3ccc(NC(=O)c4ccc(N(C)C)cc4)cc3)n(O)c2c1 [U] | > 25.1 | > 25.1 |  | * (key: *: percent cytotoxicity above 75% at 50 μg/mL; **: cytotoxicities below 75% at 50 μg/mL) |
| CCc1cc(-c2nc3ccc([N+](=O)[O-])cc3n2O)ccc1NC(=O)c1ccc(F)cc1 [Z] | > 25.1 | 10.1 to 25 |  | * (key: *: percent cytotoxicity above 75% at 50 μg/mL; **: cytotoxicities below 75% at 50 μg/mL) |

Source: US20090170812A1, “Transcription factor modulating compounds and methods of use thereof” (priority 2006, published 2009)
